Experiments:
Type in all cases: cell-based
AU565 (Her2^+) cells [1] = experiment: Cellular uptake in mixed cell populations, flow cytometry with Her2 Ab-APC gating (Example 5); settings: 2 h, mixed cell population; for Median Fluorescence Values, first set: AU565 cells (Her2+), untreated 6,875; for Median Fluorescence Values, second set: Her2+ (AU565), untreated 11,162
Method: (§1) The media were replaced with serum free media containing indicated concentrations of protein listed below and incubated for 2 h. Cells were washed 3×PBS, trypsinized, fixed with 4% PFA, stained with Her2 Ab-APC for 0.5 hour, washed with PBS and then analyzed by flow cytometry with detection of GFP.
(§2) The tested proteins of the first and second sets of experiments were applied to the mixed cell population for two hours.
(§3) The above data were also plotted in FIGS. 13A-13H to show the median fluorescence value minus background fluorescence of untreated cells (background adjusted fluorescence) (Y-axis) as a function of concentration (X-axis) for each of the tested proteins in this Example. Cellular uptake of the proteins was measured by GFP fluorescence. Her2 expression level was measured by using a Her2 antibody conjugated with allophycocyanin (APC). Gating was applied to the flow cytometry data to identify Her2^low versus Her2^high populations. […] The Her2^− profiles (diamond) are indicative of the profile of charged GFP alone. The Her2^− profiles (square) are indicative of the profile of the charged GFP in combination with the target-binding region—C6.5 scFv. The data of sfGFP-C6.5 on the Her2^high cells reflects the profile of the target-binding region (C6.5) by itself.

[2] = system: MDA-MB-468 (Her2^−) cells; experiment: as above; settings: 2 h, mixed cell population; for Median Fluorescence Values, first set: MDA-MB-468 cells (Her2−), untreated 4,303; for Median Fluorescence Values, second set: Her2− (MDA-MB-468), untreated 4,776
Method: as §1, §2, §3

AU565 (Her2^+) cells [3] = experiment: Time course of cellular uptake in mixed cell populations, flow cytometry (Example 6); settings: 0.1 μM, untreated 6,081
Method: (§4) The media were replaced with serum free media containing 0.1 μM of protein listed below and incubated for 10 minutes, 30 minutes or 4 hours. Cells were washed 3×PBS, trypsinized, stained with Her2 Antibody-APC for 0.5 hours, washed with PBS and then analyzed by flow cytometry with detection of GFP.

[4] = system: MDA-MB-468 (Her2^−) cells; experiment: as above; settings: Her2− (MDA-MB-468), 0.1 μM, untreated 4,134
Method: as §4

[5] = system: MDA-MB-468 (Her2^−) cells; experiment: Internalization of GFP proteins by flow cytometry (Example 4); settings: 1 μM protein, 2 hours, serum free media, untreated cells 4,064
Method: MDA-MB-468 cells express an insignificant level of Her2 compared to unstained background and are considered Her2 negative (referred to as Her2), whereas AU565 cells express a high level of Her2 (referred to as Her2^+).
The media were replaced with serum free media containing 1 μM of a protein listed below, and incubated for 2 hours. Cells were washed 3×PBS, trypsinized, fixed with 4% PFA, washed with PBS and then analyzed by flow cytometry with detection of GFP.
Results: Flow cytometry analysis is indicative of the amount of protein internalized into the cells. FIGS. 9A and 9B show the flow cytometry data obtained for different tested samples at various conditions. The median fluorescence values obtained from the flow cytometry peak minus the median fluorescence values of untreated cells (background fluorescence) are shown in FIGS. 10A and 10B. See also Table 7. The first column indicates identifies the GFP-component of the construct used for the particular sample treatment. The second and third columns represents fluorescence in MDA-MB-468 cells following treatment with each of the GFP proteins alone (second column; examples of use of CPMs alone) or with each of the GFP-C6.5 fusion proteins (third column; examples of fusion proteins comprising a target-binding region and a CPM region). The fourth and fifth column fluorescence in AU565 cells following treatment with each of the GFP proteins alone (fourth column; examples of use of CPMs alone) or with each of the GFP-C6.5 fusion proteins (fifth column; examples of fusion proteins comprising a target-binding region and a CPM region).

AU565 (Her2^+) cells [6] = experiment: as above; settings: 1 μM protein, 2 hours, serum free media, untreated cells 5,713
Method: The levels of Her2 expressed on cell surface were measured in flow cytometry after staining the cells with a commercial antibody against Her2, Anti-Her2-APC (BD Bioscience, catalog #340554). MDA-MB-468 cells express an insignificant level of Her2 compared to unstained background and are considered Her2 negative (referred to as Her2), whereas AU565 cells express a high level of Her2 (referred to as Her2^+).
Results: Flow cytometry analysis is indicative of the amount of protein internalized into the cells. […] The median fluorescence values obtained from the flow cytometry peak minus the median fluorescence values of untreated cells (background fluorescence) are shown in FIGS. 10A and 10B.

SKOV-3 cells (Her2^+) = experiment: Cellular uptake of GFP proteins by fluorescence microscopy; settings: 1 μM of proteins, 1 hour
Method: These images were taken to assess cellular uptake of these GFP-containing proteins by fluorescence microscopy. The images shown are an overlay of phase contrast and GFP fluorescence images.
In addition, SKOV-3 cells (Her2) were treated with 1 μM of proteins for 1 hour, and then images were taken to assess cellular uptake of GFP proteins by fluorescence microscopy (FIG. 11A).

Molecule	Median Fluorescence Values, first set (AU565 (Her2^+) cells [1]; 0.03 uM)	Median Fluorescence Values, first set (AU565 (Her2^+) cells [1]; 0.1 uM)	Median Fluorescence Values, first set (AU565 (Her2^+) cells [1]; 0.3 uM)	Median Fluorescence Values, first set (AU565 (Her2^+) cells [1]; 1 uM)	Median Fluorescence Values, first set ([2]; 0.03 uM)	Median Fluorescence Values, first set ([2]; 0.1 uM)	Median Fluorescence Values, first set ([2]; 0.3 uM)	Median Fluorescence Values, first set ([2]; 1 uM)	Internalization over time (GFP fluorescence, flow cytometry) (AU565 (Her2^+) cells [3]; 10 min)	Internalization over time (GFP fluorescence, flow cytometry) (AU565 (Her2^+) cells [3]; 30 min)	Internalization over time (GFP fluorescence, flow cytometry) (AU565 (Her2^+) cells [3]; 4 h)	Internalization over time (GFP fluorescence, flow cytometry) ([4]; 10 min)	Internalization over time (GFP fluorescence, flow cytometry) ([4]; 30 min)	Internalization over time (GFP fluorescence, flow cytometry) ([4]; 4 h)	Median fluorescence (GFP, flow cytometry) [5]	Median fluorescence (GFP, flow cytometry) (AU565 (Her2^+) cells [6])	binding and cellular uptake by fluorescence microscopy (SKOV-3 cells (Her2^+))	Median Fluorescence Values, second set ([2]; 0.1 uM)	Median Fluorescence Values, second set ([2]; 0.3 uM)	further results
+15GFP-C6.5: fusion of +15GFP (CPM) and anti-Her2 scFv C6.5 via (S4G)6 spacer; SEQ ID NO: 14	37,663	74,673	128,374	180,065	13,012	36,343	76,116	155,734	18,606	35,981	148,261	10,665	22,262	144,923	313,629	413,838				
C6.5-+15GFP: fusion with C6.5 N-terminal to +15GFP; SEQ ID NO: 16	75,821	162,337	305,944	822,351	13,355	36,070	82,571	306,260	37,044	61,007	184,844	13,517	17,194	96,599	767,627	2,170,916	internalized efficiently in the cells			
sfGFP-C6.5: control fusion of sfGFP and anti-Her2 scFv C6.5, not positively charged; SEQ ID NO: 13 [reference compound]												4,081	3,986	4,704	5,632			4,824	4,947	Median Fluorescence Values, second set ([2]; 0.03 uM): 4,460
sfGFP: superfolder GFP with His6 tag, not positively charged; SEQ ID NO: 10 [reference compound]									5,952	6,024	5,924	3,887	4,025	4,067	5,115	5,896		4,519	5,245	Median Fluorescence Values, second set (AU565 (Her2^+) cells [1]; 0.1 uM): 10,937; Median Fluorescence Values, second set (AU565 (Her2^+) cells [1]; 0.3 uM): 12,131
+2GFP-C6.5: fusion of +2GFP and C6.5; a or b variant not stated (protein, left off: large carriers; small tags and cut ends) scFv: QVQLLQSGAELKKPGESLKISCKGSGYSFTSYWIAWVRQMPGKGLEYMGLIYPGDSDTKYSPSFQGQVTISVDKSVSTAYLQWSSLKPSDSAVYFCARHDVGYCSSSNCAKWPEYFQHWGQGTLVTVSSGGGGSGGGGSGGGGSQSVLTQPPSVSAAPGQKVTISCSGSSSNIGNNYVSWYQQLPGTAPKLLIYGHTNRPAGVPDRFSGSKSGTSASLAISGFRSEDEADYYCAAWDDSLSGWVFGGGTKLTVLGGHGHHHHHH																	bound to SKOV-3 cells through Her2 but did not internalize in the cells			

— US20160031985A1, “CHARGE-ENGINEERED ANTIBODIES OR COMPOSITIONS OF PENETRATION-ENHANCED TARGETING PROTEINS AND METHODS OF USE” (PERMEON BIOLOGICS, INC., priority 2013, published 2016)
